The values that follow come from patent US20110294737A1, “TERMINALLY-DIFFERENTIATED ANUCLEATE PLATELET PROGENY GENERATION” (priority 2008, published 2011).

Entries after “also recorded” stand apart in the source; their conditions may differ.

In experiment [1] the test system is endogenous reverse transcriptase (RT) activity in platelets. The experiment in a line: Reverse transcriptase activity assay in platelet lysates (reverse transcription of MS2 phage RNA). The experiment is classed as biochemical, human. Particulars: platelet lysates incubated with compound at 37° C. for 120 minutes; nevirapine 100, 500, 750 μM; 9-cis retinoic acid 0.1, 1, 10 μM. As for the experimental part: Reverse Transcriptase Activity Assay (FIGS. 10A-C and FIGS. 11A-C). The reverse transcriptase (RT) activity assay was performed as previously described^22 with minor modifications. […] MS2 phage RNA was subsequently added to the lysates and reverse transcription of MS2 phage RNA by platelet lysates or a commercial RT (Thermoscript, Invitrogen, Eugene, Oreg.) was determined.

Experiment [2] has as its system human platelets. The experiment in a line: Surface P-selectin expression of cultured platelets with new cell bodies after agonist activation (immunostaining). The experiment is classed as cell-based. Particulars: after 6 hours culture; ADP (2 μM) or thrombin (0.005 U/ml) for 1 minute. The source says:
For protein localization studies by immunocytochemistry (ICC), fixed cells were stained with antibodies directed against αIIbβ3 and Annexin V (ab34407; Abeam, Cambridge, Mass.), P-selectin (sc-6941; Santa Cruz Biotechnology, Santa Cruz, Calif.), β-tubulin (T-5293; Sigma), or mitofilin (MSM02; MitoSciences, Eugene, Oreg.). Specificity of the staining was confirmed for each antibody with isotype-matched nonimmune IgG. The cells were counterstained with either Alexa Fluor® 488 phalloidin or Alexa Fluor® 555 WGA conjugate as described in the previous paragraph. To assess mitochondrial function, use was made of MitoTracker® Red CM-H2XRos (M7513; Invitrogen), a reduced probe that fluoresces when it enters actively respiring mitochondria. For these studies, MitoTracker® (1 μM) was incubated with the live platelets one hour before the end of the experiment.

Experiment [3] deals with human platelets. The experiment in a line: Platelet morphology: formation of extensions with new cell bodies (progeny) in suspension-cultured platelets. The experiment is classed as cell-based. Particulars: platelets 1×10^5 per mm^3 cultured in suspension for 6 hours; nevirapine 750 μM; 9-cis retinoic acid 1 and 10 μM. As for the experimental part:
Platelet Isolation and Culture. Whole blood was centrifuged at 150×g for 20 minutes to obtain platelet-rich plasma (PRP). Residual leukocytes were removed from the PRP by CD45+ bead selection as previously described^1, 6. The negatively selected platelets were resuspended in serum-free M199 culture medium at 37° C. in a humidified 5% CO2 atmosphere. For select studies, platelets were resuspended in fresh human plasma. […] Unless otherwise indicated, the washed platelets were cultured in suspension using round-bottom polypropylene tubes (Becton Dickinson, Franklin Lakes, N.J.). Platelets were suspended at 100,000/μl.
Platelet Morphology and Protein Expression. Freshly-isolated or aged platelets were either fixed immediately to assess baseline morphology, or after 6 hours of suspension culture as described above.
For studies that used fixed platelets, paraformaldehyde (4%) was added directly to the suspension culture as previously described^1, 6, 26 in order to maintain the native morphology of the cells. The fixed platelets (10,000 total for each sample) were subsequently layered onto coverslips coated with Vectabond™ (Vector Laboratories, Burlingame, Calif.) using a cytospin centrifuge (Shandon Cytospin, Thermo Fisher Scientific, Waltham, Mass.). To determine the number of platelets with extensions and distinct cell bodies, fixed cells were counterstained with Alexa Fluor® 488 phalloidin (A12379; Invitrogen, Eugene, Oreg.), a high-affinity probe for F-actin, and/or an Alexa Fluor® 555 (W32464; Invitrogen) conjugate of wheat germ agglutinin (WGA). Three random fields were captured from each independent experiment and at least 500 total cells, which encompassed individual platelets with two or more distinct cell bodies, were counted (FIG. 1H and FIG. 1I).

On to `CC1=C(/C=C/C(C)=C\C=C\C(C)=C\C(=O)O)C(C)(C)CCC1` [9-cis retinoic acid], for which the “RT activity in platelets” value in experiment [1] is “inhibited”.

As for `Nc1ncnc2c1ncn2[C@@H]1O[C@H](COP(=O)(O)OP(=O)(O)O)[C@@H](O)[C@H]1O` [ADP], the “surface P-selectin expression in platelets that developed new cell bodies” value in the experiment on human platelets [2] was “markedly increased”.

With `Cc1ccnc2c1NC(=O)c1cccnc1N2C1CC1` [nevirapine], the “RT activity in platelets” value in experiment [1] is reported as “inhibited”.

Turning to cytocholasin D, the “number of newly-formed cell bodies extending from cultured platelets / progeny formation” value in the experiment on human platelets [3] is given as “inhibited”.

Consider thrombin, for which the “surface P-selectin expression in platelets that developed new cell bodies” value in the experiment with human platelets [2] is listed as “markedly increased”. Besides, the “number of newly-formed cell bodies extending from cultured platelets / progeny formation” value in the experiment on human platelets [3] was “did not develop new cells bodies; also recorded: blocks”.

For “thrombopoietin: key regulator of bone marrow-dependent thrombopoiesis”, in the experiment with human platelets [3], the “number of newly-formed cell bodies extending from cultured platelets / progeny formation” value is “no effect”.
